Experimental data taken from patent publication US4183931A, “2-Ketoalkyl-4(3H)-quinazolinones” (Research Corporation, priority 1977, dated 1980).
Where two headings read alike, the source gives them in different places.

Experiments:
[1] = Neuropharmacological Profile (NPP): general CNS observational screen (depression, righting reflex, ataxia); settings: for Depression: at 300 mg/kg
Description: Representative compounds according to the present invention were tested for central nervous system activity by Pharmakon Laboratories of Scranton, Pennsylvania. The battery of general observational procedures used is referred to herein as a Neuropharmacological Profile (NPP). Additionally, representative compounds were tested in the Anticonvulsant Screening Project of the National Institutes of Neurological and Communicative Disorders and Stroke (NINCDS) at the University of Utah under the direction of Dr. Ewart A. Swinyard.
(§1) The procedures for the determination of a neuropharmacological profile involved white male mice of the Carworth Farm Strain CF-1 weighing 18 to 22 grams. […] Intraperitoneal injections were administered in logarithmic progression and sequentially. The dose levels employed routinely were 10, 30, 100 and 300 mg/kg, using four male mice at each dose level. Since this test was conducted in a sequential manner, the first does administered was at 300 mg/kg. […] Approximately thirty-eight signs and symptoms of pharmacological activity can be identified.
(§2) The animals were observed continously for one hour and, if no signs of pharmacological or toxicological activity were present at the end of the first hour, they were intermittently checked for activity every fifteen minutes thereafter for two consecutive hours. […] The observation period began immediately following the injection and the animals were then continuously observed for three hours and intermittently checked thereafter for forty-eight hours. The animals were observed and signs and symptoms of pharmacological activity were recorded continuously until no further symptoms developed and until the symptoms that appeared were no longer present. […] In such instances, the animals were observed beyond this period until they returned to normal. Routinely, the number of animals alive at the end of the forty-eight hour observation period was recorded and the LD50 estimated.
The animals are free to move about for evaluation of spatial orientation, alertness and spontaneous motor activity.
(§3) Since this is a general CNS screening procedure, only peak effects were recorded. Certain measures of behavior and neurological deficit were scored in terms of intensity of effect, while most others were determined on an all or none basis. Thus, in scoring measures which were normally present, e.g., spontaneous activity and skin color, an increase in score from 4 to 8 was used to denote stimulation or enhancement of skin color, whereas a decrease in score from 4 to 0 indicated depression or cyanosis. For scoring measures normally absent, e.g., depression, righting reflex and ataxia, activity was reflected as an increase in score from 0 to 8. The 0 to 8 scale was rounded off so that the actual ratings are only 0, 2, 4, 6 and 8. The compounds were also evaluated for anticonvulsant activity by using the maximal electroshock seizure (MES) test. In the MES study, four mice were dosed intraperitoneally at 100 mg/kg and challenged thirty minutes later with 50 mA, 0.2 second duration of electroshock. A protection ratio (number of mice protected from tonic extension .div. number of mice tested) was then established.
At the termination of the test, the results were recorded and tabulated.
(§4) Scores for behavioral symptoms, including depression, righting reflex and ataxia, are the actual numbers reported. Protection against MES is reported as a percentage. Since four animals were involved in this test, the findings are 0% for none protected, 25% for one out of four, etc. […] In order to maintain reasonable uniformity in the reporting of results, each entry corresponds to a dosage level of 100 mg/kg. Any variations from that dosage are indicated.

[2] = NPP maximal electroshock seizure (MES) protection; type: in vivo, white male mice of the Carworth Farm Strain CF-1; settings: Mus musculus, ip; for responders at 100 mg/kg: 0.5 h, at 100 mg/kg i.p., four mice, 30 min after dosing
Description: as §1, §3, §4

[3] = NPP lethality (estimated LD50); settings: mouse, in vivo, ip
Description: as §1, §2, §4

[4] = NINCDS Subcutaneous Pentylenetetrazol (Metrazol) Seizure Threshold Test (scMet); type: in vivo, mice; settings: Mus musculus, sc, read-out: scMet: dosage level that elicited protection
Description: 1. Neurological Activity Tests. […] Compounds were evaluated for anticonvulsant activity in two seizure models, the maximal electroshock seizure (MES) test and the subcutaneous pentylenetetrazol (Metrazol) seizure threshold (scMet) test.
Subcutaneous Pentylenetetrazol (Metrazol) Seizure Threshold Test (scMet) produces threshold (clonic) seizures. Pentylenetetrazol is administered subcutaneously as a threshold 0.5% solution (in 0.9% sodium chloride) in a loose fold of skin on the back of the neck in a dose of 85 mg/kg. […] Metrazol is given 10 minutes before the beginning of the test to allow for the delay in onset of Metrazol action. The animal is observed for 30 minutes. Failure to observe even a threshold seizure (a single episode of clonic spasms at least 5 seconds in duration) is defined as protection and indicates anticonvulsant activity in the test compound. These two methods of seizure provocation reliably elicit well-characterizied seizure phenomena.
The ability of a compound to prevent maximal electroshock seizures is believed to correlate with its ability to prevent the spread of seizure discharge through neural tissue. Activity against maximal electroshock seizures is thought to indicate potential efficacy in the treatment of major motor (grand mal) seizures. […] Selective action in the test is believed to indicate potential efficacy against absence (petit mal) seizures.
As described earlier, the MES, scMet and Rotorod tests were performed one-half hour and four hours after administration of each compound.
In the Secondary Evaluation, median effective doses (ED50) are determined in the MES, scMet and Rotorod assays using the procedures defined in Pharmacology, 95, 99-113 (1949).
Separate groups of animals are used for each time period. The times of peak toxic and anticonvulsant effect are taken from the resulting graph of percent of animals responding vs. time, and the determinations of median effective doses are performed at those times.

[5] = at 100 mg/kg, i.p., mice, score 0-8
[6] = after 4 hr (value in parentheses)
[7] = at 30 mg/kg (value in parentheses), i.p., mice, score 0-8

SMILES | CNS Depression [1, 5] | responders at 100 mg/kg [2] | LD50 at 48 h [3] | CNS Depression [1, 7] | also measured
COc1cc(C(=O)Cc2nc3ccccc3c(=O)n2-c2ccccc2C)cc(OC)c1OC [IIIj, 2-[2-Oxo-2-(3,4,5-trimethoxyphenyl)ethyl]-3-o-tolyl-4(3H)-quinazolinone] | 2 | 0% | > 562 mg/kg |  | Depression ([1]; i.p., mice, score 0-8): 4
O=C(Cc1nc2ccccc2c(=O)n1-c1ccccc1)C(F)(F)F [IVe, 2-(3,3,3-Trifluoroacetonyl)-3-phenyl-4(3H)-quinazolinone] | 2 | 0% | 562 mg/kg |  | 
Cc1ccccc1-n1c(CCc2ccccc2)nc2ccccc2c1=O [CH2 C6 H5, reference compound] |  |  |  |  | minimal effective dose ([4]; after 0.5 hr): 300 mg/kg; minimal effective dose [4, 6]: 300 mg/kg
Cc1nc2ccccc2c(=O)n1-c1ccccc1 [phenyl H, 2-methyl-3-phenyl-4(3H)-quinazolinone, reference compound] | 8 |  | 562 mg/kg | 4 | Ataxia [1, 5]: 8; Righting reflex [1, 5]: 8; responders at 30 mg/kg ([2]; conducted at 30 mg/kg i.p.): 0%
Cc1ccc(-n2c(C)nc3ccccc3c2=O)cc1 [p-tolyl H, 2-methyl-3-p-tolyl-4(3H)-quinazolinone, reference compound] | 8 | 100% | > 562 mg/kg | 4 | Ataxia [1, 5]: 8
Cn1c(CC(=O)c2cccnc2)nc2ccccc2c1=O [IVs, 2-[2-Oxo-2-(3-pyridyl)ethyl]-3-methyl-4(3H)-quinazolindone] | 4 | 0% | 422 mg/kg |  | 
O=C(Cc1nc2ccccc2c(=O)n1-c1ccccc1Cl)c1ccccn1 [IVb, 2-[2-Oxo-2-(2-pyridyl)ethyl]-3-o-chlorophenyl-4(3H)-quinazolinone] | 0 | 0% | 562 mg/kg |  | Depression ([1]; i.p., mice, score 0-8): 2
Cc1ccc(-n2c(CC(=O)c3cccnc3)nc3ccccc3c2=O)cc1 [IVk, 2-[2-Oxo-2-(3-pyridyl)ethyl]-3-p-tolyl-4(3H)-quinazolinone] | 4 | 0% | 562 mg/kg |  | 
Cn1c(CC(=O)c2ccccc2)nc2ccccc2c1=O [IVr, 2-(2-Oxo-2-phenylethyl)-3-methyl-4(3H)-quinazolinone] |  |  |  |  | minimal effective dose [4, 6]: 300 mg/kg
O=C(Cc1nc2ccccc2c(=O)n1-c1ccccc1)c1ccncc1 [IVh, 2-[2-Oxo-2-(4-pyridyl)ethyl]-3-phenyl-4(3H)-quinazolinone] |  |  |  |  | minimal effective dose ([4]; after 0.5 hr): 100 mg/kg
Cc1ccccc1-n1c(CC(=O)c2cccnc2)nc2ccccc2c1=O [IIIc, 2-[2-Oxo-2-(3-pyridyl)ethyl]-3-o-tolyl-4(3H)-quinazolinone] | 6 | 100% | 562 mg/kg | 4 | Ataxia [1, 5]: 8; minimal effective dose [4, 6]: 300 mg/kg
Cc1ccccc1-n1c(CC(=O)c2ccc(Cl)cc2)nc2ccccc2c1=O [IIIh, 2-[2-Oxo-2-(4-chlorophenyl)ethyl]-3-o-tolyl-4(3H)-quinazolinone] | 0 | 0% | 316 mg/kg |  | Depression ([1]; i.p., mice, score 0-8): 4
Cc1ccccc1-n1c(CC(=O)C=Cc2ccccc2)nc2ccccc2c1=O [IIIf, 2-(2-Oxo-4-phenylbut-3-enyl)-3-o-tolyl-4(3H)-quinazolinone] | 4 | 25% | > 562 mg/kg | 2 | 
COc1ccc(C(=O)Cc2nc3ccccc3c(=O)n2-c2ccccc2C)cc1 [IIIi, 2-[2-Oxo-2-(4-methoxyphenyl)ethyl]-3-o-tolyl-4(3H)-quinazolinone] | 2 | 0% | > 562 mg/kg |  | Depression ([1]; i.p., mice, score 0-8): 4
Cc1ccccc1-n1c(CC(=O)c2ccccn2)nc2ccccc2c1=O [IIIb, 2-[2-Oxo-2-(2-pyridyl)ethyl]-3-o-tolyl-4-(3H)-quinazolinone] | 2 | 0% | > 562 mg/kg |  | minimal effective dose ([4]; after 0.5 hr): 300 mg/kg
Cc1ccc(-n2c(CC(=O)c3ccncc3)nc3ccccc3c2=O)cc1 [IVl, 2-[2-Oxo-2-(4 pyridyl)ethyl]-3-p-tolyl-4(3H)-quinazolinone] |  |  |  |  | minimal effective dose [4, 6]: 300 mg/kg
Cc1ccc(-n2c(CC(=O)C(F)(F)F)nc3ccccc3c2=O)cc1 [IVi, 2-(3,3,3-Trifluoroacetonyl)-3-p-tolyl-4(3H)-quinazolinone] | 4 | 100% | 562 mg/kg |  | Ataxia [1, 5]: 2
CC(=O)Cc1nc2ccccc2c(=O)n1-c1ccccc1C [IIIn, 2-Acetonyl-3-o-tolyl-4(3H)-quinazolinone] | 8 | 0% | > 562 mg/kg | 4 | behavioral activity compared with methaqualone ([1]; NPP summary): equal to methaqualone in affecting behavioral activity; muscle relaxant properties ([1]; NPP summary): possible muscle relaxant properties not exhibited by methaqualone itself; minimal effective dose [4, 6]: 300 mg/kg
CCOC(=O)C(=O)Cc1nc2ccccc2c(=O)n1-c1ccccc1C [IIIm, 2-Ethoxallylmethyl-3-o-tolyl-4(3H)-quinazolinone] | 4 | 0% | > 562 mg/kg |  | 
Cc1ccccc1-n1c(CC(=O)c2ccccc2)nc2ccccc2c1=O [IIIg, 2-(2-Oxo-2-phenylethyl)-3-o-tolyl-4(3H)-quinazolinone] | 4 | 0% | > 562 mg/kg | 4 | 
Cc1ccccc1-n1c(CC(=O)C(F)(F)F)nc2ccccc2c1=O [IIIa, 2-(3,3,3-Trifluoroacetonyl)-3-o-tolyl-4(3H)-quinazoline] |  | 50% | > 562 mg/kg | 4 | Ataxia [1, 5]: 2
